Here are results for 2 substances from patent publication US20050043262A1, “Novel specific inhibitor of the cyclin kinase inhibitor p21Waf1/Cip1 and methods of using the inhibitor” (priority 2000, published 2005).

Type in all cases: cell-based, human
For series [1], the system named is p21. The series can be described thus: p21 level in T47D cells (immunoblot, immunohistochemistry). To be noted: for p21 level by immunoblot: 200 or 400 nM, 24 hours after transfection. As for the experimental part: (§1) Antisense Transfections: […] (Wilsonville, Oreg.). The human p21 antisense ODN sequence was [NT] ID NO.: 4). The randomly scrambled sequence of control ODN was [NT] ID NO.: 3), and the second control ODN (used for the experiment depicted in FIG. 34 was the sense human p21 sequence [NT] ID NO.: 5). For the transfection procedure, cells were grown to 70% confluence and washed with sterile PBS, and the ODNs (200 or 400 nM) were mixed with 6.6 μl Lipofectin/ml Opti-MEM media and added to the cells for 5 hours at 37° C. Serum-free media (without ODNs) were added overnight, the media were changed in the morning, and the cells were stimulated with serum or platelet-derived growth factor-BB as indicated. Immunoblotting: For FIGS. 27A and B, aliquots of each breast tumor (7) and corresponding normal (N) tissue were homogenized and subjected to immunoblotting with full-length p21 antibody and α-actin as a loading control. Density of p21 and actin bands was determined and reported as a ratio. HeLa cell nuclear extract was electrophoresed on the same gel as a positive control for p21 mobility. The samples of breast cancer tissues were cut into small pieces and rapidly homogenized in lysis buffer (1 ml/ mg) at 4° C. Cells from cell lines were grown to confluence in 60-mm culture dishes, and after incubation under appropriate conditions, the cells were washed with PBS and lysed in lysis buffer at 4° C. The tissue homogenates or cell lysates were centrifuged (13,000× g, 4° C., 10 min), and the supernatants were Western blotted as described previously (Weiss, […]., and Ramirez, A., Am. J. Physiol., 274: […]-[…], 1998). Densitometry was analyzed using NIH Image. […] Percentage of cytoplasmic and nuclear staining, intensity of staining (using a scale of 0 to 3+), and tumor grading using a modified Bloom-Richardson combined histological grade were determined by a breast pathologist. […] A and B, the cells were lysed, and equal protein quantities (20 μg) were electrophoresed and immunoblotted with p21 antibody. […] Density of p21 and MAPK bands was determined and reported as a ratio. […]
(In general: A western blot detects proteins with antibodies after separation by electrophoresis.)

For series [2], the system named is p21. The series can be described thus: p21 level in MCF7 cells (immunoblot, immunohistochemistry). To be noted: for p21 level by immunoblot: 200 or 400 nM, 24 hours after transfection. As for the experimental part: as §1
The next series relates to PARP. The experiment in a line: PARP cleavage by immunoblot in T47D cells. The protocol: As a further measure of apoptosis, cleavage of PARP was next examined. This protein is cleaved by caspases and results in appearance of Mr 85,000 and Mr 24,000 fragments, the latter of which binds irreversibly to broken ends of DNA, which assures irreversibility of apoptosis. Both breast cancer cell lines were transfected with antisense p21 and random sequence ODNs and immunoblotted with PARP antibody. […] T47D (A) and MCF7 (B) cells were grown to confluence, serum starved for 24 hours, and lipofected with antisense p21 or control ODN at the concentrations indicated. cont refers to nontransfected cells, and lipofect refers to cells treated with lipofectin but no DNA. The cells were lysed, and equal protein quantities were electrophoresed and immunoblotted with PARP antibody. The degradation product of PARP (Mr 85,000) is indicated by an arrow. MAPK is a loading control; a positive PARP cleavage control is Jurkat whole cell lysate.

The next series has as its system caspase-3. The series can be described thus: Caspase-3 activity (CaspACE colorimetric assay) in MCF-7 cells. The settings on record: MCF-7 cells (lack caspase-3). The protocol:
Caspase-3 Activity: The CaspACE Assay System was used to measure the activity of caspase-3. After incubation under appropriate conditions, the cells were lysed in CaspACE lysis buffer, and protein concentration was determined by dye reagent protein assay (Bio-Rad, Hercules, Calif.). […] The lysates with equal protein amounts were incubated with DEVD-p-nitroaniline substrate for 4 hours at 37° C. The reaction products were detected at 405 nm using a PowerWave X automated plate reader (Bio-Tek Instruments).
As another confirmatory test for antisense p21 ODN-mediated apoptosis, caspase-3 activation was assessed. Members of the caspase family of proteases are essential components of an evolutionarily conserved cell death pathway in multicellular eukaryotes and play key roles in inflammation and apoptosis in mammalian cells. Caspase-3 has substrate specificity for the amino acid sequence DEVD (Asp-Glu-Val-Asp) and is inhibited by the tetrapeptide inhibitor Ac-DEVD-CHO; its catalytic activity was assessed colorimetrically using the labeled Ac-DEVD-pNA substrate. […] T47D cells were grown to confluence, serum starved for 24 hours, and lipofected with antisense p21 or control ODN at the concentrations indicated. Caspase-3 activity was assessed as described in “Capase-3 Activity” using a colorimetric method. […]

Setting [3] is: compared with random sequence ODN.

In the oligonucleotide strings, read from the 5' end, every base follows the letter of its sugar. An asterisk marks phosphorothioate; unmarked linkages are phosphodiester. Other units and linkages are bracketed, terminal groups are in braces. A string of capitals states the bases alone. d = 2'-deoxy (DNA)

Take “5′-ATC-CCC-AGC-CGG-TTC-TGA-CAT-3′ (antisense ATCCCCAGCCGGTTCTGACAT; listed as DNA, chemistry not fully specified) [antisense p21 ODN]”: the “p21 level by immunoblot” value with p21 [1] was “marked, dose-dependent attenuation”; in the series on p21 [2], “marked, dose-dependent attenuation”. Further, the “p21 staining by immunohistochemistry” value with p21 [1] (setting [3]) and in the series on p21 [2] (setting [3]) was “decreased p21 staining” each time. The “PARP cleavage (Mr 85,000 product)” value in the series with PARP is “marked PARP cleavage”. Further, the “caspase-3 cleavage (activity)” value in the series with caspase-3 is “did not show significant caspase-3 cleavage products”.

“5′-TGG ATC CGA CAT GTC AGA-3′ (dT*dG*dG*dA*dT*dC*dC*dG*dA*dC*dA*dT*dG*dT*dC*dA*dG*dA) [random sequence control oligonucleotide, reference compound]”: the entries for the “p21 level by immunoblot” value in the series with p21 [1] and with p21 [2] were “inhibitory effect” and “moderate decrease”, respectively. In addition, the “PARP cleavage (Mr 85,000 product)” value in the series on PARP is recorded as “proapoptotic effect”.
